Laboratory results from ChEMBL document CHEMBL5390226, “Synthesis and Staphylococcus aureus biofilm inhibitory activity of indolenine-substituted pyrazole and pyrimido[1,2-b]indazole derivatives” (Bioorg Med Chem, 2023).
Converted amounts (≈) assume the structure as drawn. The source made the active and inactive calls. The rule behind the calls is not given here.

Legend:
Staphylococcus aureus [1] = assay: Antibiofilm activity against methicillin-susceptible Staphylococcus aureus ATCC 29213 assessed as inhibition of biofilm formation incubated for 24 hrs by crystal violet staining based analysis; format: functional; conditions: dose 1.56-100 µg/ml
Staphylococcus aureus [2] = assay: Antibiofilm activity against methicillin-resistant Staphylococcus aureus ATCC 33591 assessed as inhibition of biofilm formation incubated for 24 hrs by crystal violet staining based analysis; format: functional; conditions: dose 1.56-100 µg/ml
Staphylococcus aureus [3] = assay: Antibiofilm activity against methicillin-susceptible Staphylococcus aureus ATCC 29213 assessed as biofilm eradication incubated for 24 hrs by crystal violet staining based analysis; format: functional
Staphylococcus aureus [4] = assay: Antibiofilm activity against methicillin-resistant Staphylococcus aureus ATCC 33591 assessed as biofilm eradication incubated for 24 hrs by crystal violet staining based analysis; format: functional
[5] = Cytotoxicity against human A549 cells assessed as inhibition of cell growth measured after 48 hrs by MTT assay; format: toxicity, cell-based
Staphylococcus aureus [6] = assay: Antibacterial activity against methicillin-resistant Staphylococcus aureus ATCC ATCC 33591 assessed as planktonic growth inhibition at 25 to 50 ug/mL incubated for 24 hrs; format: functional, organism-based; conditions: dose 25-50 µg/ml
Staphylococcus aureus [7] = assay: Antibacterial activity against methicillin-resistant Staphylococcus aureus ATCC 33591 assessed as MBC to MIC ratio; format: functional
Staphylococcus aureus [8] = assay: Antibacterial activity against methicillin-susceptible Staphylococcus aureus ATCC 29213 assessed as bacterial growth inhibition incubated for 24 hrs by CLSI based microbroth dilution method; format: functional
Staphylococcus aureus [9] = assay: Antibiofilm activity against methicillin-susceptible Staphylococcus aureus ATCC 29213 assessed as disruption of biofilm incubated for 24 hrs by crystal violet staining based inverted microscopic analysis; format: functional, organism-based; conditions: dose 1.56-12.5 µg/ml
Staphylococcus aureus [10] = assay: Antibacterial activity against methicillin-resistant Staphylococcus aureus ATCC 33591 assessed as bacterial growth inhibition incubated for 24 hrs by CLSI based microbroth dilution method; format: functional
Staphylococcus aureus [11] = assay: Antibacterial activity against methicillin-susceptible Staphylococcus aureus ATCC 29213 assessed as planktonic growth inhibition at 25 to 50 ug/mL incubated for 24 hrs; format: functional, organism-based; conditions: dose 25-50 µg/ml
Staphylococcus aureus [12] = assay: Antibiofilm activity against methicillin-resistant Staphylococcus aureus ATCC 33591 assessed as disruption of biofilm incubated for 24 hrs by crystal violet staining based inverted microscopic analysis; format: functional, organism-based; conditions: dose 1.56-12.5 µg/ml

SMILES | MBIC50 (Staphylococcus aureus [1]) | MBIC50 (Staphylococcus aureus [2]) | MBEC50 (Staphylococcus aureus [3]) | further results
CC1(C)C(c2cnn(-c3ccc(C(=O)NCCc4ccccc4)cc3)c2)=Nc2ccc3ccccc3c21 | >100 µg/mL | – | – | –
Cc1ccc(CNC(=O)c2ccc(-n3cc(C4=Nc5ccccc5C4(C)C)cn3)cc2)cc1 | >100 µg/mL | – | – | –
CC1(C)C(c2cnc3c4ccc(Br)cc4nn3c2)=Nc2ccccc21 | >100 µg/mL | 100 µg/mL | >100 µg/mL | –
CC1(C)C(c2cnn(-c3ccc(C(=O)NCCc4ccccc4)cc3)c2)=Nc2ccccc21 | >100 µg/mL | – | – | –
Oc1cc(Cl)ccc1Oc1ccc(Cl)cc1Cl [TRICLOSAN] | <=1.56 ug ml-1 | <=1.56 ug ml-1 | 3.13 µg/mL | MBEC50 (Staphylococcus aureus [4]): 6.25 µg/mL
CC1(C)C(c2cnc3c4ccc(C(F)(F)F)cc4nn3c2)=Nc2c1ccc1ccccc21 | >100 µg/mL | 100 µg/mL | >100 µg/mL | –
COc1ccc2c(c1)C(C)(C)C(c1cnc3c4c(OC)cccc4nn3c1)=N2 | >100 µg/mL | 25 µg/mL | >100 µg/mL | –
COc1ccc(NC(=O)c2ccc(-n3cc(C4=Nc5ccccc5C4(C)C)cn3)cc2)cc1 | >100 µg/mL | – | – | –
COc1ccc2c(c1)C(C)(C)C(c1cnn(-c3ccc(C(=O)O)cc3)c1)=N2 | 12.5 µg/mL | 100 µg/mL | >100 µg/mL | –
CC1(C)C(c2cnc3c4ccccc4nn3c2)=Nc2ccccc21 | >100 µg/mL | 100 µg/mL | 100 µg/mL | MBEC50 (Staphylococcus aureus [4]): >100 µg/mL
COc1cccc2nn3cc(C4=Nc5ccc6ccccc6c5C4(C)C)cnc3c12 | >100 µg/mL | – | >100 µg/mL | MBEC50 (Staphylococcus aureus [4]): 100 µg/mL
CC1(C)C(c2cnn(-c3ccccc3)c2)=Nc2ccc(C(=O)O)cc21 | 12.5 µg/mL | <=1.56 ug ml-1 | >100 µg/mL | MBEC50 (Staphylococcus aureus [4]): 25 µg/mL; IC50 at 48 h [5]: > 100 µg/mL
COc1ccc2c(c1)C(C)(C)C(c1cnc3c4ccccc4nn3c1)=N2 | >100 µg/mL | 50 µg/mL | >100 µg/mL | –
CCCCNC(=O)c1ccc(-n2cc(C3=Nc4ccccc4C3(C)C)cn2)cc1 | >100 µg/mL | – | – | –
CC1(C)C(c2cnn(-c3ccc(C(=O)Nc4ccc(F)cc4)cc3)c2)=Nc2ccc3ccccc3c21 | >100 µg/mL | – | – | –
CC1(C)C(c2cnn(-c3ccc(C(=O)NC4CCCCC4)cc3)c2)=Nc2ccccc21 | >100 µg/mL | – | – | –
CC1(C)C(c2cnn(-c3ccc(C(=O)O)cc3)c2)=Nc2ccc3ccccc3c21 | <=1.56 ug ml-1 | 3.13 µg/mL | 12.5 µg/mL | inhibition (Staphylococcus aureus [2]): Dose-Dependent Effect; inhibition (Staphylococcus aureus [6]): Active; Ratio (Staphylococcus aureus [7]): >4; MBEC50 (Staphylococcus aureus [4]): 6.25 µg/mL; inhibition (Staphylococcus aureus [1]): Dose-Dependent Effect; MIC (Staphylococcus aureus [8]): 25 µg/mL (≈ 65.5 µM); Activity (Staphylococcus aureus [9]): Dose-Dependent Effect; IC50 at 48 h [5]: > 100 µg/mL; MIC (Staphylococcus aureus [10]): 25 µg/mL (≈ 65.5 µM); inhibition (Staphylococcus aureus [11]): Active; Activity (Staphylococcus aureus [12]): Dose-Dependent Effect
CC1(C)C(c2cnn(-c3ccc(C(=O)NCc4cccnc4)cc3)c2)=Nc2ccccc21 | >100 µg/mL | – | – | –
CC1(C)C(c2cnc3c4ccc(Br)cc4nn3c2)=Nc2c1ccc1ccccc21 | >100 µg/mL | 50 µg/mL | >100 µg/mL | –
CC1(C)C(c2cnn(-c3ccc(C(=O)Nc4ccncc4)cc3)c2)=Nc2ccccc21 | >100 µg/mL | – | – | –
CCOC(=O)c1ccc2c(c1)C(C)(C)C(c1cnc3c4ccc(Br)cc4nn3c1)=N2 | >100 µg/mL | – | >100 µg/mL | –
CCOC(=O)c1ccc2c(c1)C(C)(C)C(c1cnc3c4ccccc4nn3c1)=N2 | >100 µg/mL | 100 µg/mL | >100 µg/mL | –
CCOC(=O)c1ccc2c(c1)C(C)(C)C(c1cnc3c4ccc(C(F)(F)F)cc4nn3c1)=N2 | 100 µg/mL | – | >100 µg/mL | MBEC50 (Staphylococcus aureus [4]): 100 µg/mL
CC1(C)C(c2cnn(-c3ccc(C(=O)O)cc3)c2)=Nc2ccc(Cl)cc21 | 6.25 µg/mL | – | 12.5 µg/mL | MBEC50 (Staphylococcus aureus [4]): 50 µg/mL; IC50 at 48 h [5]: > 100 µg/mL

SMILES | MBIC50 (Staphylococcus aureus [1]) | MBIC50 (Staphylococcus aureus [2]) | MBEC50 (Staphylococcus aureus [3]) | further results
COc1ccc2c(c1)C(C)(C)C(c1cnc3c4ccc(C(F)(F)F)cc4nn3c1)=N2 | 100 µg/mL | – | >100 µg/mL | MBEC50 (Staphylococcus aureus [4]): 100 µg/mL
CC1(C)C(c2cnc3c4ccccc4nn3c2)=Nc2c1ccc1ccccc21 | 25 µg/mL | 6.25 µg/mL | >100 µg/mL | –
COc1cccc2nn3cc(C4=Nc5ccccc5C4(C)C)cnc3c12 | 50 µg/mL | >100 µg/mL | >100 µg/mL | –
Cc1ccccc1NC(=O)c1ccc(-n2cc(C3=Nc4ccccc4C3(C)C)cn2)cc1 | >100 µg/mL | – | – | –
CC1(C)C(c2cnn(-c3ccc(C(=O)Nc4ccccc4)cc3)c2)=Nc2ccccc21 | >100 µg/mL | – | – | –
CC1(C)C(c2cnn(-c3ccc(C(=O)NCc4ccc(F)cc4)cc3)c2)=Nc2ccc3ccccc3c21 | >100 µg/mL | – | – | –
COc1ccc2c(c1)C(C)(C)C(c1cnc3c4ccc(Br)cc4nn3c1)=N2 | >100 µg/mL | – | >100 µg/mL | –
CC1(C)C(c2cnn(-c3ccc(C(=O)NCc4ccc(F)cc4)cc3)c2)=Nc2ccccc21 | >100 µg/mL | – | – | –
CN(C)c1ccccc1NC(=O)c1ccc(-n2cc(C3=Nc4ccccc4C3(C)C)cn2)cc1 | >100 µg/mL | – | – | –
CC1(C)C(c2cnn(-c3ccc(C(=O)Nc4ccc(Cl)cc4)cc3)c2)=Nc2ccccc21 | >100 µg/mL | – | – | –
CC1(C)C(c2cnc3c4ccc(C(F)(F)F)cc4nn3c2)=Nc2ccc3ccccc3c21 | 50 µg/mL | – | >100 µg/mL | –
CC1(C)C(c2cnn(-c3ccc(C(=O)NCc4ccccc4)cc3)c2)=Nc2ccccc21 | >100 µg/mL | – | – | –
CC1(C)C(c2cnc3c4ccccc4nn3c2)=Nc2ccc3ccccc3c21 | >100 µg/mL | 50 µg/mL | >100 µg/mL | –
N=C(NCCCCCCNC(=N)NC(=N)Nc1ccc(Cl)cc1)NC(=N)Nc1ccc(Cl)cc1 [CHLORHEXIDINE] | 3.13 µg/mL | <=1.56 ug ml-1 | 12.5 µg/mL | MBEC50 (Staphylococcus aureus [4]): 3.13 µg/mL
Cc1ccc(NC(=O)c2ccc(-n3cc(C4=Nc5ccccc5C4(C)C)cn3)cc2)cc1 | >100 µg/mL | – | – | –
CC1(C)C(c2cnn(-c3ccc(C(=O)O)cc3)c2)=Nc2ccccc21 | 6.25 µg/mL | 50 µg/mL | >100 µg/mL | –
CC1(C)C(c2cnn(-c3ccc(C(=O)Nc4ccncc4)cc3)c2)=Nc2ccc3ccccc3c21 | >100 µg/mL | – | – | –
COc1cccc2nn3cc(C4=Nc5c(ccc6ccccc56)C4(C)C)cnc3c12 | 12.5 µg/mL | – | >100 µg/mL | –
CCOC(=O)c1ccc2c(c1)C(C)(C)C(c1cnc3c4c(OC)cccc4nn3c1)=N2 | >100 µg/mL | 12.5 µg/mL | >100 µg/mL | –
CC1(C)C(c2cnc3c4ccc(Br)cc4nn3c2)=Nc2ccc3ccccc3c21 | >100 µg/mL | – | >100 µg/mL | –
CC1(C)C(c2cnc3c4ccc(C(F)(F)F)cc4nn3c2)=Nc2ccccc21 | 100 µg/mL | 12.5 µg/mL | >100 µg/mL | –
CC1(C)C(c2cnn(-c3ccc(C(=O)Nc4ccc(Cl)cc4)cc3)c2)=Nc2ccc3ccccc3c21 | >100 µg/mL | – | – | –
CC1(C)C(c2cnn(-c3ccc(C(=O)Nc4ccc(F)cc4)cc3)c2)=Nc2ccccc21 | >100 µg/mL | – | – | –
